Experimental data taken from patent publication US20080206194A1, “Method for the treatment of breast cancer” (priority 2007, published 2008).
“Also recorded” adds a separate entry of the source.

Columns and labels:
mammary tumors = assay: Mammary tumor formation after carcinogenesis in Pax8PPARγ transgenic mice; format: in vivo; details: MMTV-Pax8PPARγ transgenic mice, ER(+) carcinomas; 200 mg/kg subcutaneously once a week for three months after carcinogen administration
Procedure: FIG. 2 is a bar graph showing the total number of mammary tumors appearing in transgenic MMTV-Pax8PPARγ FVB mice treated with either vehicle or ERα antagonist fulvestrant, 200 mg/kg subcutaneously once per week for three months after carcinogen administration.
Mammary carcinogenesis (see, e.g., Yin et al., Characterization of medroxyprogesterone and DMBA-induced multilineage mammary tumors by gene expression. Mol. Carcinogenesis 42:pp. 42-50, (2005)) was induced in Pax8PPARγ transgenic mice, which mammary carcinomas are ER(+) and were treated once a week for three months with the ER antagonist fulvestrant at a dose of 200 mg/kg administered subcutaneously in an oil emulsion. […] Each experimental group consisted of 6 mice. FIG. 2 indicates the total number of mammary tumors appearing three months after carcinogen administration.

ERα = ERα detection by immunochemical staining of DMBA/progestin-induced mammary carcinomas; format: in vivo; details: wild-type FVB mice, medroxyprogesterone/DMBA-induced carcinogenesis, 40 mg/kg subcutaneously, weekly, for 12 weeks, rabbit polyclonal antibody
Procedure: FIG. 1 illustrates ER detection by immunochemical staining with a rabbit polyclonal antibody of dimethylbenz(α)anthracene (DMBA)/progestin-induced mammary carcinomas of wild-type FVB mice, transgenic MMTV-Pax8PPARγ FVB mice and GW9662-treated mice, with 40 mg/kg, subcutaneously, weekly, for 12 weeks.
Mammary carcinogenesis was induced in female wild-type FVB/N or MMTV-Pax8PPARγ transgenic mice purchased from Charles River Laboratories (Wilmington, Mass.) by subcutaneous injection of 600 mg/kg medroxyprogesterone acetate suspension (150 mg/ml, Sicor Pharmaceuticals Inc., Irvine, Calif.), followed one week later by four weekly oral doses of 1 mg dimethylbenz(a)anthracene (DMBA) dissolved in cottonseed oil (10 mg/ml). Following the last dose of DMBA, mice were injected subcutaneously once a week with 40 mg/kg GW9662 dissolved in cottonseed oil (10 mg/ml). […]
Mammary carcinomas from transgenic MMTV-Pax8PPARγ FVB mice stained intensely for ERα, particularly in the basal layer of cells, as compared to low ERα staining in ductal epithelium from wild-type FVB mice (see FIG. 1). […] ERα was detected by immunochemical staining with a rabbit polyclonal antibody (Santa Cruz Biotechnology, sc-542) diluted 1:1000.

Row | Compound | tumor formation (total number of mammary tumors) (mammary tumors) | ERα expression (immunochemical staining) in mammary carcinomas (ERα)
1 | C[C@]12CC[C@@H]3c4ccc(O)cc4C[C@@H](CCCCCCCCC[S+]([O-])CCCC(F)(F)C(F)(F)F)[C@H]3[C@@H]1CC[C@@H]2O (some centres unmarked) [fulvestrant] | completely inhibited tumor formation | –
2 | O=C(Nc1ccccc1)c1cc([N+](=O)[O-])ccc1Cl [GW9662, 2-Chloro-5-nitrobenzanilide] | – | substantial ERα staining; also recorded: pattern of ERα expression similar to MMTV-Pax8PPARγ mice
